In US8187633B2, “Controlled release coated tablets having prolonged gastric retention” (Sun Pharma Advanced Research Company Limited, priority 2005, dated 2012):

Experiment: in vitro dissolution testing in simulated gastric fluids, Type 1 USP dissolution apparatus
Format: physicochemical
Details: coated trilayer tablet of the Example, 0.01 N hydrochloric acid, 100 rpm, 37° C.
Protocol: The coated tablets were subjected to in vitro dissolution testing in simulated gastric fluids (0.01 N hydrochloric acid) at 100 rpm and 37° C. using Type 1 USP dissolution apparatus. [table]

% released (0 hours)	% released (1 hour)	% released (2 hours)	% released (4 hours)	% released (6 hours)	% released (8 hours)	Structure (SMILES)
0%	24%	33%	57%	82%	95%	N[C@@H](Cc1ccc(O)c(O)c1)C(=O)O [levodopa]
0%	22%	31%	52%	76%	86%	C[C@@](Cc1ccc(O)c(O)c1)(NN)C(=O)O [Carbidopa]
